The values below come from patent US20210369720A1, “SYNERGISTIC COMPOSITION HAVING NEUROPROTECTIVE PROPERTIES AND METHODS OF USE THEREOF” (Rutgers, The State University of New Jersey, priority 2018, published 2021).

Data set [1] relates to Syn^Tg mice. Description: Rotarod, Syn^Tg mice. Format: in vivo. The following applies: EHT 12 mg/kg/day in chow and/or caffeine 50 mg/kg/day in drinking water from weaning until six months of age, vs untreated Syn^Tg mice. An excerpt:
(§1) Thy1-α-synuclein transgenic mice (Syn^Tg) on BDF1 background overexpressing human wild-type α-synuclein under the control of the Thy1 promoter were maintained by mating heterozygous transgenic females with WT BDF1 males (Rockenstein E, et al. (2002) Differential neuropathological alterations in transgenic mice expressing alpha-synuclein from the platelet-derived growth factor and Thy-1 promoters. J Neurosci Res 68(5):568-578). BDF1 mice (mixed C57BL/6-DBA/2) were generated every three months by mating female C57BL/6 (The Jackson Laboratory) and male DBA/2 mice (Charles River). Experiments were performed with male transgenic mice and their WT littermates. […] Wild-type littermates received regular water and control chow. […] At two months of age, mice were inoculated with α-Syn PFF unilaterally in the striatum. These treatments continued throughout the experiment until animals were sacrificed. Mice were weighed and their food and water intake was quantified weekly. Animals were housed 2-5/cage in an AAALAC approved facility in a temperature- and humidity-controlled environment under a 12-hour light/dark cycle and were maintained on a diet of lab chow and water ad libitum. […]
On the technique in general: In the rotarod test animals must keep their balance on a rotating rod.

In data set [2] the test system is Syn^Tg mice. The data set is described as follows: Wire Hang test, Syn^Tg mice. It is filed as in vivo. The settings on record: EHT 12 mg/kg/day in chow and/or caffeine 50 mg/kg/day in drinking water from weaning until six months of age, vs untreated Syn^Tg mice.
From the text: as §1

Data set [3] deals with Syn^Tg mice. The data set is described as follows: Nesting behavior, Syn^Tg mice. Format: in vivo. The settings on record: EHT 12 mg/kg/day in chow and/or caffeine 50 mg/kg/day in drinking water from weaning until six months of age, vs untreated Syn^Tg mice.
From the text: as §1

Data set [4] concerns Syn^Tg mice. The data set is described as follows: Morris Water Maze, Syn^Tg mice. Format: in vivo. The settings on record: EHT 12 mg/kg/day in chow and/or caffeine 50 mg/kg/day in drinking water from weaning until six months of age, vs untreated Syn^Tg mice.
From the text: as §1

The subject of data set [5] is phosphorylated α-synuclein (p-α-Syn). Description: Western blot of p-α-Syn in cortical tissue lysates, Syn^Tg mice. It is filed as in vivo. The following applies: EHT 12 mg/kg/day and/or caffeine 50 mg/kg/day until six months of age, vs untreated Syn^Tg mice.
From the text: as §1, with “weekly.” for “weekly. Animals were housed 2-5/cage in an AAALAC approved facility in a temperature- and humidity-controlled environment under a 12-hour light/dark cycle and were maintained on a diet of lab chow and water ad libitum.”
(§2) Human neuroblastoma SH-SY5Y cells were cultured in DMEM-F12 with 10% FBS. […] Protein concentration was determined by bicinchonic acid (BCA) method (Pierce), equal amount of protein was separated on 5-20% SDS-PAGE gel (Genescript) and transferred to nitrocellulose or PVDF membrane (Biorad). […]
A general note: Immunoblotting shows a protein as a band on a membrane.

Data set [6] concerns MAP2. Description: Immunofluorescence staining of MAP2 in the cortex, Syn^Tg mice. The settings on record: EHT 12 mg/kg/day and/or caffeine 50 mg/kg/day until six months of age. Format: in vivo.
From the text: as §1

Data set [7] concerns PP2A. Description: Western blot of PP2A methylation, striatal tissue lysates of Syn^Tg mice. Format: in vivo. The settings on record: normalized to total PP2A, EHT 12 mg/kg/day and/or caffeine 50 mg/kg/day. From the text:
(§3) Thy1-α-synuclein transgenic mice (Syn^Tg) on BDF1 background overexpressing human wild-type α-synuclein under the control of the Thy1 promoter were maintained by mating heterozygous transgenic females with WT BDF1 males (Rockenstein E, et al. (2002) Differential neuropathological alterations in transgenic mice expressing alpha-synuclein from the platelet-derived growth factor and Thy-1 promoters. J Neurosci Res 68(5):568-578). BDF1 mice (mixed C57BL/6-DBA/2) were generated every three months by mating female C57BL/6 (The Jackson Laboratory) and male DBA/2 mice (Charles River). Experiments were performed with male transgenic mice and their WT littermates. […] Wild-type littermates received regular water and control chow. […] At two months of age, mice were inoculated with α-Syn PFF unilaterally in the striatum. These treatments continued throughout the experiment until animals were sacrificed. Mice were weighed and their food and water intake was quantified weekly. Animals were housed 2-5/cage in an AAALAC approved facility in a temperature- and humidity-controlled environment under a 12-hour light/dark cycle and were maintained on a diet of lab chow and water ad libitum. All animal procedures were approved by the Rutgers-Robert Wood Johnson Medical School Institutional Animal Care and Use Committee and were performed according to the National Institutes of Health Guide for the Care and Use of Laboratory Animals.
(§4) Human neuroblastoma SH-SY5Y cells were cultured in DMEM-F12 with 10% FBS. At 50% confluency, cells were treated with 1 gg/ml mouse α-Syn PFF in DMEM-F12 with 1% FBS for 7 days. Medium was refreshed every 3 days. Cell harvesting was done with 2% SDS in PBS supplemented with protease inhibitor (Millipore) and phosphatase inhibitor (Sigma-Aldrich). Lysates were sonicated and boiled at 95° C. for 5 minutes. Protein concentration was determined by bicinchonic acid (BCA) method (Pierce), equal amount of protein was separated on 5-20% SDS-PAGE gel (Genescript) and transferred to nitrocellulose or PVDF membrane (Biorad). Following transfer, membranes were blocked for 1 hour at room temperature in blocking buffer (Li-Cor) or 5% (w/v) BSA/TBS-Tween 0.1% (v/v). Primary antibodies were diluted in blocking buffer or 5% (w/v) BSA/TBS-Tween 0.1% (v/v) and incubated with the membranes at 4° C. overnight. Membranes were washed three times in TBS-Tween and incubated in diluted IRDye 800CW or HRP conjugated secondary antibody for 1 hour at room temperature. Following washing, membranes were scanned by Li-Cor Odyssey CLx infrared imaging system or treated with the Western Lightning ECL-plus reagents (PerkinElmer) and exposed to autoradiography films (LabScientific).

Data set [8] concerns α-Syn PFF inoculated WT mice. Description: Rotarod, α-Syn PFF inoculated WT mice. It is filed as in vivo. The following applies: EHT 12 mg/kg/day in diet and/or caffeine 50 mg/kg/day in drinking water from weaning, 6 months post-inoculation.
From the text: as §1

Data set [9] relates to α-Syn PFF inoculated WT mice. The data set is described as follows: Wire Hang test, α-Syn PFF inoculated WT mice. It is filed as in vivo. The following applies: EHT 12 mg/kg/day in diet and/or caffeine 50 mg/kg/day in drinking water from weaning, 6 months post-inoculation.
From the text: as §1

In data set [10] the test system is α-Syn PFF inoculated WT mice. The data set is described as follows: Nesting behavior, α-Syn PFF inoculated WT mice. It is filed as in vivo. The settings on record: EHT 12 mg/kg/day in diet and/or caffeine 50 mg/kg/day in drinking water from weaning, 6 months post-inoculation.
From the text: as §1

Data set [11] concerns α-Syn PFF inoculated WT mice. Description: Morris Water Maze, α-Syn PFF inoculated WT mice. Format: in vivo. The settings on record: EHT 12 mg/kg/day and/or caffeine 50 mg/kg/day, 6 months post-inoculation, test also not affected by PFF inoculation.
From the text: as §1

For data set [12], the system named is phosphorylated α-synuclein (p-α-Syn). The data set is described as follows: Immunohistochemical staining of p-α-Syn, α-Syn PFF inoculated WT mice. The settings on record: EHT 12 mg/kg/day and/or caffeine 50 mg/kg/day, vs untreated α-Syn PFF inoculated mice. It is filed as in vivo.
From the text: as §3
α-Syn PFF solution was sonicated at 60% amplitude 30 times (0.5 sec on, 0.5 sec off). During the stereotactic surgery, two month old WT C57BL/6 mice were anesthetized by Ketamine/xylazine (90/4.5 mg/kg, i.p., Ketaset from Zoetis, and Anased from Akorn) and positioned in a digital stereotaxic apparatus (Stoelting, Wood Dale, Ill.). A midline sagittal incision was made in the scalp, and a hole was drilled in the skull over the right striatum according to the coordinates below. All injections were made using a Hamilton neuros syringe equipped with a 33 gauge needle and attached to a Quintessential Stereotaxic Injector (Stoelting, Wood Dale, Ill.). A total of 5∝g/2.5 ul of α-Syn PFF was infused in the dorsal striatum (+0.2 mm relative to Bregma, +2.0 mm from midline, +2.6 mm beneath the dura) at a delivery rate of 0.2∝l/min (61). The needle was kept in place for 5 min following the infusion to prevent reflux before withdrawing.
Immunohistochemical analyses were performed as described previously (Lee et al., 2011; 2012). Mice were perfused transcardially with PBS, and brains were removed and post-fixed in 10% formalin at 4° C. overnight. Fixed brains were then sectioned coronally in 30 am thickness using a cryostat and collected as sets of slices with the same interval. Free-floating sections were blocked by 1% BSA and 0.2% Triton X100 in PBS. Sections were then incubated with primary antibody overnight at 4° C. and biotinylated secondary antibody for 1 hour at room temperature.
Vectastain elite ABC kit (Vector Laboratories, Burlingame, Calif.) and 3,3′-diaminobenzidine (Sigma-Aldrich) were used for amplifying and color development. Images were captured by Nikon Eclipse 55i. Staining intensity and phosphorylated α-synuclein (p-α-Syn) aggregate counts were obtained by Image Pro Plus. Intensity calibration was set to the level of a blank area in each image. HSI (hue, saturation and intensity) was used for the color selection with the standard parameters of H: 0-30, S: 0-255 and I: 0-160. […]

Data set [13] concerns Tyrosine hydroxylase (TH). The data set is described as follows: Striatal TH staining, α-Syn PFF inoculated WT mice. It is filed as in vivo. The settings on record: EHT 12 mg/kg/day and/or caffeine 50 mg/kg/day, vs untreated α-Syn PFF inoculated mice.
From the text: as §1

Data set [14] deals with dopamine. Description: Striatal dopamine content by HPLC-MS, α-Syn PFF inoculated WT mice. The following applies: each compound alone, EHT 12 mg/kg/day or caffeine 50 mg/kg/day, vs untreated α-Syn PFF inoculated mice. It is filed as in vivo.
From the text: as §1

Data set [15] has as its system TH positive dopaminergic neurons of the substantia nigra. Description: Nigral TH positive neuron count, α-Syn PFF inoculated WT mice. Format: in vivo. The following applies: each compound individually, PFF alone reduced neurons by 51% vs PBS.
From the text: as §1

Data set [16] has as its system PP2A. Description: Western blot of PP2A methylation, ipsilateral striatal tissue lysates of α-Syn PFF inoculated mice. Format: in vivo. The settings on record: EHT 12 mg/kg/day and/or caffeine 50 mg/kg/day, vs untreated α-Syn PFF inoculated mice.
From the text: as §3
α-Syn PFF solution was sonicated at 60% amplitude 30 times (0.5 sec on, 0.5 sec off). During the stereotactic surgery, two month old WT C57BL/6 mice were anesthetized by Ketamine/xylazine (90/4.5 mg/kg, i.p., Ketaset from Zoetis, and Anased from Akorn) and positioned in a digital stereotaxic apparatus (Stoelting, Wood Dale, Ill.). […]
as §2

Data set [17] relates to PP2A. Description: Western blot of PP2A methylation in SH-SY5Y cells challenged with α-Syn PFF. The settings on record: SH-SY5Y cells challenged with mouse α-Syn PFF for 7 days; caffeine and/or EHT added to the medium. It is filed as cell-based, Human. How it is done: as §4
The subject of data set [18] is p-α-Syn. The data set is described as follows: Western blot of p-α-Syn in SH-SY5Y cells challenged with α-Syn PFF. It is filed as cell-based, Human. The following applies: SH-SY5Y cells challenged with mouse α-Syn PFF for 7 days; caffeine and/or EHT added to the medium. The procedure: as §4
Data set [19] deals with SH-SY5Y cells. The data set is described as follows: Cytotoxicity of α-Syn PFF by propidium iodide (PI) exclusion in SH-SY5Y cells. The settings on record: SH-SY5Y cells challenged with mouse α-Syn PFF for seven days; vs untreated α-Syn PFF-challenged cells (2.5 fold increase of PI positive cells). Format: cell-based, Human.
Data set [20] relates to A53T mutant α-synuclein fibril injections in the striatum. The settings on record: mice, chronic caffeine treatment; cited from earlier work.

For the compound `Cn1c(=O)c2c(ncn2C)n(C)c1=O` [Caffeine, 1,3,7-trimethylxanthine, reference compound], the “performance on the rotarod” value in data set [1] is “did not show any improvement”. The “performance on the wire hang test” value in data set [2] is given as “did not show any improvement”. In data set [3], the nesting behavior entry is recorded as “did not show any improvement”. Besides, in [4], the “performance on the Morris Water Maze” value is “did not show any improvement”. Also, in data set [5], the “p-α-Syn levels by Western blot, cortical tissue lysates” value is “no significant effect”. The “MAP2 in the cortex (neuritic integrity)” value in data set [6] is “did not improve this profile”. Besides, in data set [7], the “Demethylated PP2A (demethyl-PP2A) levels” value is listed as “not affected” and the “Methylated PP2A (Methyl-PP2A) levels” value was “did not change”. In [8], the “performance on the rotarod” value is on record as “did not affect performance”. Also, the “performance on the wire hang test” value in data set [9] is on record as “did not affect performance”. For the same compound, the “nesting behavior (nest building)” value in data set [10] is listed as “did not affect performance”. Moreover, in data set [11], the “Learning and memory task on the Morris Water Maze” value is reported as “not affected”. Besides, in data set [12], the “p-α-Syn in the contralateral striatum” value is listed as “partially but insignificantly reduced” and the “p-α-Syn in the ipsilateral striatum” value is “partially but insignificantly reduced”. For the same compound, the “TH staining of dopaminergic terminals in the striatum (ipsilateral and contralateral)” value in data set [13] was “no effect”. The “dopamine (DA) content in lysates of the ipsilateral striatum, benefit in words” value in data set [14] was “did not have a significant benefit”. Moreover, the “prevention of the reduction of TH positive dopaminergic neurons of the substantia nigra” value in [15] is on record as “did not prevent this reduction”. For the same compound, the methyl-PP2A levels entry in [16] is recorded as “insignificant increase”. In addition, in data set [17], the “demethylated PP2A levels” value is “partially reversed this trend” and the “methylated PP2A levels” value was “partially reversed this trend”. The p-α-Syn levels result in data set [18] was “no effect”. The “cytotoxicity of α-Syn PFF, number of PI positive cells (cell viability)” value in data set [19] is listed as “modestly protected”. The “protection against A53T mutant α-synuclein fibril injections in the striatum” value in [20] was “protect”.
